Source: patent EP0234178A1, “New 8-substituted derivatives of an anhydrooctonic acid, methods for their preparation, pharmaceutical preparations containing these and intermediates” (Astra Läkemedel Aktiebolag, priority 1985, dated 1987)

How the values were obtained:
[1] = tested on: S. typhimurium AG701 i50 (KdsA^ts); experiment: Test III Inhibition of incorporation of 3H-arabinose-5-phosphate into LPS; format: cell-based, Salmonella typhimurium; settings: S. typhimurium AG701 i50, 30°C, samples after 10 min
Experimental: Arabinose-5-phosphate is a precursor of KDO in enteric bacteria. KdsA mutants of Salmonella typhimurium rapidly take up exogenous arabinose-5-phosphate and convert it to KDO which then appears exclusively in LPS (J. Biol. Chem. 255 (1980) 4257).
S. typhimurium AG701 i50 (KdsA^ts) was grown overnight at 30°C in minimal Medium (Eur. J. Biochem. 107 (1980) 145-153) supplemented with 1% glycerol and 0.01 mM D-fucose. The next day 0.1 ml of overnight culture was added to fresh medium and the culture grown at 30°C until mid logarithmic phase - (OD [formula] mm = 0.2) when 50 µl of "H-arabinose-5-phosphate (Amersham; specific activity 72 µCi/ml)-was added. After 10 min 0.45 ml samples were taken, the bacteria colleced by filtration (Whatman GF/F glass fibre filter) and washed with 6 ^x Iml PBS followed by 100 ml boiling water. This procedure ensures that all radioactive counts recorded represent arabinose-5-phosphate incorporated into LPS as KDO (J. Biol. Chem. 255 (1980) 4257).

Gram-negative bacteria = experiment: Test I Bactericidal activity (viable count after exposure to drug); format: cell-based; settings: final concentration of ImM, 15 min exposure, number of viable bacteria
Experimental: A range of Gram-negative bacteria were grown at 37°C in aerobic shake culture in nutrient broth for 16 h. O.I ml of these cultures were each inoculated into 5 ml of fresh broth and the cultures incubated further, until the bacteria reached mid-logarithmic phase, when the culture was harvested by centrifugation and resuspended in Basal Medium 2 (J Bacteriol 117 (1974) 3O2-311) to an OD 1cm 620 mm = 0.2 (equivalent to 10^8 bacteria/ml). Test compound was added to the bacterial suspension to give a final concentration of ImM. After 15 min exposure to drug the number of viable bacteria was determined by serial dilution in sterile phosphate buffered saline (PBS), plating out onto McConkey agar plates and incubating for 16 h at 37°C.

C[C@H](N)C(=O)N[C@@H](C)C(=O)NC[C@@H](O)[C@H]1O[C@H](C(=O)O)C[C@@H](O)[C@H]1O [Compound 6, N-(L-alanyl-L-alanyl)-8-amino-2,6-anhydro-3,8-dideoxy-D-glycero-D-talo-octonic acid]
incorporation of arabinose-5-phosphate into LPS / denovo LPS biosynthesis [1]: markedly inhibits | inhibitory action against the bacteria (Gram-negative bacteria): inhibitory action
